Where “and” joins values, the source holds several entries; their conditions need not be identical. Equal values may be shown once. Read-outs that look alike come from different tables or passages of the source.
Key:
MCF-7 cells = assay: MCF-7 cell viability assay (Alamar Blue); assay type: cell-based, human; conditions: for IC50: MCF-7 cells; for effect on viability of MCF-7 cells: 0, 0.01, 0.1, 10, and 100 µM
Protocol: We obtained MCF-7 cells from Procell Life Science and Technology. A humidified atmosphere of 5% CO2 was maintained at 37 °C for the culture of MCF-7 cells (2000) in MEM or Leibovitz’s L-15 medium enriched with 2% FBS [21, 22, 23, 24]. DMSO was used to prepare a stock solution of pyranopyrazoles, and the stock solution was then diluted with culture medium to achieve the desired concentration. […] Incubation with AlamarBlue assay reagent was performed for a further 4 h. According to the established protocol, the IC50 values of compounds were determined in the absence and presence of pyranopyrazoles.
Figure 4 Loss of MCF-7 cell viability produced by compounds 5b 5d, and 5f. MCF-7 cells were exposed to 5b (A), 5d (B), and 5f (C) for 72 h and the viability of cells was analyzed by Alamar Blue assays. The results are presented as mean ± S.E.M. of triplicate determinations.

BT-474 cells = assay: Breast cancer cell proliferation, Alamar Blue, BT-474; assay type: cell-based; conditions: Homo sapiens, 72 h, 2% FBS medium, 3 days
MDA-MB-231 = assay: Breast cancer cell proliferation, Alamar Blue, MDA-MB-231; assay type: cell-based; conditions: Homo sapiens, 72 h; MDA-MB-231 cells, 2% FBS medium, 3 days
SKBR3 = assay: Breast cancer cell proliferation, Alamar Blue, SKBR3; assay type: cell-based; conditions: Homo sapiens, SK-BR-3, 72 h; SKBR3 cells, 2% FBS medium, 3 days
MCF-10A cells = assay: Cytotoxicity to normal breast cells, Alamar Blue, MCF-10A; assay type: cell-based; conditions: Homo sapiens, 72 h; MCF-10A normal breast cells, 2% FBS medium, 3 days
CDK1 [1] = biological target: T1, CDK1 (Homo sapiens, UniProt P06493); assay: CDK1 kinase assay (ADP-Glo / Kinase-Glo luminescence); assay type: biochemical; design: 1 mg of CDK1 antibodies were used to immunoprecipitate 1 mg of protein from the total cell lysate; endogenous in cells; host or cells: total cell lysate
Protocol: Promega’s Kinase-Glo luminescence assay was used for detection of CDK1 activity. IgG was used as a negative control, and 1 mg of CDK1 antibodies were used to immunoprecipitate 1 mg of protein from the total cell lysate. At […], the reaction mixture was incubated for three hours and subsequently, beads were washed three times with lysis buffer, following overnight incubation at […]. The reactant beads were added to […] kinase reaction buffer containing 0.2 mM ATP, 2 mM DTT, 0.1 mg/mL BSA, 20 mM MgCl2, and 40 mM Tris-HCl, and beads were resuspended for 30 min at room temperature with a CDK1/2 specific substrate (p53). A total of 10 µl of ADP-GLO reagent and […] of kinase detection reagent were added to the reaction for 40 min at room temperature and 5 min at room temperature, respectively. […]
Since the ADP-GloTM Kinase Assay uses multiple enzymes as components, it should not generate a high rate of interference or false responses when screening pyranopyrazoles anti-CDK1 activity. […] Based on the luminescence units for compounds 5b and 5f, Figure 8 illustrates the standard curves generated for inhibition of cdk1 activity by pyranopyrazoles at different concentrations. […]
Figure 8 In vitro inhibition of CDK1 by compounds 5b (A) and 5f (B). The inhibitory effect of pyranopyrazoles on CKD1 measured using ADP−Glo™ reagent. […]

T47D = assay: Breast cancer cell proliferation, Alamar Blue, T47D; assay type: cell-based; conditions: Homo sapiens, 72 h; T47D cells, 2% FBS medium, 3 days
CDK1 [2] = biological target: T1, CDK1; design: method as in PMID 34156352; conditions: literature value; cited from earlier work

T1 sequence (P06493 whole entry): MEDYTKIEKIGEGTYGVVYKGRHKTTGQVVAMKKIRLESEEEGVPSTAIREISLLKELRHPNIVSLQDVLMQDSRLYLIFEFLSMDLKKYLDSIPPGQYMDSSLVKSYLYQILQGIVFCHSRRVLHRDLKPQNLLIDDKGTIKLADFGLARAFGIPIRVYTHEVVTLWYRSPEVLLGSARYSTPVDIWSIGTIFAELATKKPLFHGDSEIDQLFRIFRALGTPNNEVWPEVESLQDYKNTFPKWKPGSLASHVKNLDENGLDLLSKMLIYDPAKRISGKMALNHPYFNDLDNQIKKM
T1 sequence (P14635 whole entry partner): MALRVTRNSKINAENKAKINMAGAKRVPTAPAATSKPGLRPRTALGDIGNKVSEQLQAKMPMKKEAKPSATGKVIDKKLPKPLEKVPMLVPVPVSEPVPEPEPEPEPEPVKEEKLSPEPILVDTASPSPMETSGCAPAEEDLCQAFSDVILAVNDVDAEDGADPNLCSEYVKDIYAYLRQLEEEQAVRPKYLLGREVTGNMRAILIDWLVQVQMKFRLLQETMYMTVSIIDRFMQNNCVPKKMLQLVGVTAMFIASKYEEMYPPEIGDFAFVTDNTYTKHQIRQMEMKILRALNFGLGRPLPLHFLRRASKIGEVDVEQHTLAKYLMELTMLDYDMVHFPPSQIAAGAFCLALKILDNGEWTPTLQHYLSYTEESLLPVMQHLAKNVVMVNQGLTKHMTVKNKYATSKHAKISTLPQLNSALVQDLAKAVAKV

Row | melting point [°C] | IC50 (MCF-7 cells; Homo sapiens, MCF7, 72 h) [µM] | IC50 (BT-474 cells) [µM] | IC50 (MDA-MB-231) [µM] | IC50 (SKBR3) [µM] | IC50 (CDK1 [1]) [µM] | IC50 (MCF-7 cells; 72 h) | IC50 (T47D) [µM] | Structure (SMILES) | IC50 (MCF-10A cells) [µM] | effect on viability of MCF-7 cells (MCF-7 cells; 72 h) | IC50 (CDK1 [2]) [µM]
1 | 232 to 234 | > 100 | 50.2 | 22.1 | > 100 | – | – | > 100 | Cc1n[nH]c2c1C(c1ccc(-c3ccncc3)cc1)C(C#N)=C(N)O2 (stereo not shown) [5e, 6-Amino-3-methyl-4-(4-(pyridin-4-yl)phenyl)-1,4-dihydropyra-no [2,3-c] Pyrazole-5-carbonitrile] | > 100 | – | –
2 | 268 to 269 | 23.8 | 15.2 | 19.1 | > 100 | 7.16 | – | 45.8 | Cc1cc(-c2ccc(C3C(C#N)=C(N)Oc4[nH]nc(C)c43)cc2)cnc1F (stereo not shown) [5f, 6-Amino-4-(4-(6-fluoro-5-methylpyridin-3-yl)phenyl)-3-methyl-1,4-dihydropyrano [2,3-c] Pyrazole-5-carbonitrile] | > 100 | dose–dependent decrease | –
3 | 242 to 243 | – | – | – | – | – | – | – | Cc1nn(-c2ccc(Cl)cc2)c2c1C(c1cccc(-c3cncnc3)c1)C(C#N)=C(N)O2 (stereo not shown) [5g, 6-Amino-1-(4-chlorophenyl)-3-methyl-4-(3-(pyrimidin-5-yl)phenyl)-1,4-dihydropyrano [2,3-c] Pyrazole-5-carbonitrile] | – | – | –

The remaining lines, values behind:

Row | Structure (SMILES) | melting point [°C] | IC50 (MCF-7 cells; Homo sapiens, MCF7, 72 h) [µM] | IC50 (BT-474 cells) [µM] | IC50 (MDA-MB-231) [µM] | IC50 (SKBR3) [µM] | IC50 (CDK1 [1]) [µM] | IC50 (MCF-7 cells; 72 h) | IC50 (T47D) [µM] | IC50 (MCF-10A cells) [µM] | effect on viability of MCF-7 cells (MCF-7 cells; 72 h) | IC50 (CDK1 [2]) [µM]
4 | Cc1n[nH]c2c1C(c1ccc(-c3cncnc3)cc1)C(C#N)=C(N)O2 (stereo not shown) [5a, 6-Amino-3-methyl-4-(4-(pyrimidin-5-yl)phenyl)-1,4-dihydropy-rano [2,3-c] Pyrazole-5-carbonitrile] | 196 to 198 | 55 | – | – | – | – | – | – | – | – | –
5 | Cc1cc(-c2cccc(C3C(C#N)=C(N)Oc4[nH]nc(C)c43)c2)cnc1F (stereo not shown) [5b, 6-Amino-4-(3-(6-fluoro-5-methylpyridin-3-yl)phenyl)-3-methyl-1,4-dihydropyrano [2,3-c] Pyrazole-5-carbonitrile] | 214 to 215 | 17.8 | 23.7 | 13.5 | > 100 | 0.96 | 17.2 µM and 17 µM | 27.5 | 90.5 | dose–dependent decrease | –
6 | Cc1n[nH]c2c1C(c1cccc(-c3ccncc3)c1)C(C#N)=C(N)O2 (stereo not shown) [5c, 6-Amino-3-methyl-4-(3-(pyridin-4-yl)phenyl)-1,4-dihydropyrano [2,3-c] Pyrazole-5-carbonitrile] | 245 to 247 | – | 21.3 | 15 | 69.4 | – | – | 33.7 | 88.2 | – | –
7 | Cc1cc(-c2cccc(C3C(C#N)=C(N)Oc4[nH]nc(C)c43)c2)cnc1Cl (stereo not shown) [5d, 6-Amino-4-(3-(6-chloro-5-methylpyridin-3-yl)phenyl)-3-methyl-1,4-dihydropyrano [2,3-c] Pyrazole-5-carbonitrile] | 212 to 214 | 38.9 | – | – | – | – | – | – | – | dose–dependent decrease | –
8 | O=C(c1cc(Cc2n[nH]c(=O)c3ccccc23)ccc1F)N1CCN(C(=O)C2CC2)CC1 [Olaparib, reference compound] | – | 3.28 | – | – | – | – | – | – | – | – | –
9 | CC(C)CC(=O)Nc1[nH]nc2c1CN(C(=O)C1CCN(C)CC1)C2(C)C [PHA-793887] | – | – | – | – | – | – | – | – | – | – | 0.06

Reference: PMC9856062, “Nano-Zirconium Dioxide Catalyzed Multicomponent Synthesis of Bioactive Pyranopyrazoles That Target Cyclin Dependent Kinase 1 in Human Breast Cancer Cells” (Biomedicines, 2023)
